# What was measured:
# total AKT (T-AKT) = assay: Immunoblotting of total AKT in BT474 cells; format: cell-based; settings: 24 h, western blot; for AKT (T-AKT) degradation: BT474 cells, 1, 5 and 10 μM
# [1] = system: P-AKT (S473), P-PRAS40 (T246), P-S6 (S240/244); assay: Immunoblotting of P-AKT and downstream signaling in BT474 cells; format: cell-based; settings: 24 h
# [2] = BT474 cells, 5 μM, western blot
# [3] = BT474 cells, 1, 5 and 10 μM, P-PRAS40 and P-S6, western blot
structure (smiles),measurement,setting,value
"Cc1ncsc1-c1ccc(CNC(=O)[C@@H]2C[C@@H](O)CN2C(=O)[C@@H](NC(=O)CCCCCC(=O)N2CCN(CC[C@H](NC(=O)C3(N)CCN(c4ncnc5[nH]ccc45)CC3)c3ccc(Cl)cc3)CC2)C(C)(C)C)cc1 [Compound 15, 4-Amino-N-((S)-1-(4-chlorophenyl)-3-(4-(7-(((S)-1-((2S,4R)-4-hydroxy-2-((4-(4-methylthiazol-5-yl)benzyl)carbamoyl)pyrrolidin-1-yl)-3,3-dimethyl-1-oxobutan-2-yl)amino)-7-oxoheptanoyl)-piperazin-1-yl)propyl)-1-(7H-pyrrolo[2,3-d]pyrimidin-4-yl)-piperidine-4-carboxamide]",AKT degradation,"total AKT (T-AKT); BT474 cells, 5 μM",improved AKT degradation
same,downstream signaling inhibition,[1]; [2],significant downstream signaling inhibition
"Cc1ncsc1-c1ccc(CNC(=O)[C@@H]2C[C@@H](O)CN2C(=O)[C@@H](NC(=O)CCCCC(=O)N2CCN(CC[C@H](NC(=O)C3(N)CCN(c4ncnc5[nH]ccc45)CC3)c3ccc(Cl)cc3)CC2)C(C)(C)C)cc1 [Compound 14, 4-Amino-N-((S)-1-(4-chlorophenyl)-3-(4-(6-(((S)-1-((2S,4R)-4-hydroxy-2-((4-(4-methylthiazol-5-yl)benzyl)carbamoyl)pyrrolidin-1-yl)-3,3-dimethyl-1-oxobutan-2-yl)amino)-6-oxohexanoyl)-piperazin-1-yl)propyl)-1-(7H-pyrrolo[2,3-d]pyrimidin-4-yl)-piperidine-4-carboxamide]",AKT degradation,"total AKT (T-AKT); BT474 cells, 5 μM",improved AKT degradation
same,downstream signaling inhibition,[1]; [2],significant downstream signaling inhibition
"Cc1ncsc1-c1ccc(CNC(=O)[C@@H]2C[C@@H](O)CN2C(=O)[C@@H](NC(=O)CCCC(=O)N2CCN(CC[C@H](NC(=O)C3(N)CCN(c4ncnc5[nH]ccc45)CC3)c3ccc(Cl)cc3)CC2)C(C)(C)C)cc1 [Compound 13, 4-Amino-N-((S)-1-(4-chlorophenyl)-3-(4-(5-(((S)-1-((2S,4R)-4-hydroxy-2-((4-(4-methylthiazol-5-yl)benzyl)carbamoyl)pyrrolidin-1-yl)-3,3-dimethyl-1-oxobutan-2-yl)amino)-5-oxopentanoyl)-piperazin-1-yl)propyl)-1-(7H-pyrrolo[2,3-d]pyrimidin-4-yl)-piperidine-4-carboxamide]",AKT (T-AKT) degradation,total AKT (T-AKT),inactive at reducing the T-AKT protein level
"NC1(C(=O)N[C@@H](CCN2CCN(C(=O)CCOCCOCCOCCOCCOCCNc3cccc4c3CN(C3CCC(=O)NC3=O)C4=O)CC2)c2ccc(Cl)cc2)CCN(c2ncnc3[nH]ccc23)CC1 (stereo partly drawn) [Compound 39, 4-Amino-N-((1S)-1-(4-chlorophenyl)-3-(4-(1-((2-(2,6-dioxopiperidin-3-yl)-1-oxoisoindolin-4-yl)amino)-3,6,9,12,15-pentaoxaoctadecan-18-oyl)piperazin-1-yl)propyl)-1-(7H-pyrrolo[2,3-d]pyrimidin-4-yl)piperidine-4-carboxamide]",AKT (T-AKT) degradation,total AKT (T-AKT),significantly decreased effectiveness in AKT degradation
"Cc1ncsc1-c1ccc(CNC(=O)[C@@H]2C[C@@H](O)CN2C(=O)[C@@H](NC(=O)CCOCCC(=O)N2CCN(CC[C@H](NC(=O)C3(N)CCN(c4ncnc5[nH]ccc45)CC3)c3ccc(Cl)cc3)CC2)C(C)(C)C)cc1 [Compound 4, 4-Amino-N-((S)-1-(4-chlorophenyl)-3-(4-(3-(3-(((S)-1-((2S,4R)-4-hydroxy-2-((4-(4-methylthiazol-5-yl)benzyl)carbamoyl)pyrrolidin-1-yl)-3,3-dimethyl-1-oxobutan-2-yl)amino)-3-oxopropoxy)-propanoyl)piperazin-1-yl)propyl)-1-(7H-pyrrolo[2,3-d]pyrimidin-4-yl)piperidine-4-carboxamide]",AKT (T-AKT) degradation,total AKT (T-AKT),decreased the AKT degradation effectiveness
"Cc1ncsc1-c1ccc(CNC(=O)[C@@H]2C[C@@H](O)CN2C(=O)[C@@H](NC(=O)CCC(=O)N2CCN(CC[C@H](NC(=O)C3(N)CCN(c4ncnc5[nH]ccc45)CC3)c3ccc(Cl)cc3)CC2)C(C)(C)C)cc1 [Compound 12, 4-Amino-N-((S)-1-(4-chlorophenyl)-3-(4-(4-(((S)-1-((2S,4R)-4-hydroxy-2-((4-(4-methylthiazol-5-yl)benzyl)carbamoyl)pyrrolidin-1-yl)-3,3-dimethyl-1-oxobutan-2-yl)amino)-4-oxobutanoyl)-piperazin-1-yl)propyl)-1-(7H-pyrrolo[2,3-d]pyrimidin-4-yl)-piperidine-4-carboxamide]",AKT (T-AKT) degradation,total AKT (T-AKT),inactive at reducing the T-AKT protein level
"NC1(C(=O)N[C@@H](CCN2CCN(C(=O)CCOCCNc3cccc4c3C(=O)N(C3CCC(=O)NC3=O)C4=O)CC2)c2ccc(Cl)cc2)CCN(c2ncnc3[nH]ccc23)CC1 (stereo partly drawn) [Compound 31, 4-Amino-N-((1S)-1-(4-chlorophenyl)-3-(4-(3-(2-((2-(2,6-dioxopiperidin-3-yl)-1,3-dioxoisoindolin-4-yl)amino)ethoxy)propanoyl)-piperazin-1-yl)propyl)-1-(7H-pyrrolo[2,3-d]pyrimidin-4-yl)-piperidine-4-carboxamide]",AKT degradation,"total AKT (T-AKT); BT474 cells, 10 μM",only moderate AKT degradation
"Cc1ncsc1-c1ccc(CNC(=O)[C@@H]2C[C@@H](O)CN2C(=O)[C@@H](N)C(C)(C)C)cc1 [VHL-1, (2S,4R)-1-[(S)-2-amino-3,3-dimethylbutanoyl]-4-hydroxy-N-[4-(4-methylthiazol-5-yl)benzyl]pyrrolidine-2-carboxamide, reference compound]",T-AKT protein level,"total AKT (T-AKT); BT474 cells, 1 μM",no effect
same,downstream signaling (PRAS40 and S6 phosphorylation),"[1]; BT474 cells, 1 μM, western blot",no effect
"NC1(C(=O)N[C@@H](CCN2CCN(C(=O)CCCNc3cccc4c3C(=O)N(C3CCC(=O)NC3=O)C4=O)CC2)c2ccc(Cl)cc2)CCN(c2ncnc3[nH]ccc23)CC1 (stereo partly drawn) [Compound 26, 4-Amino-N-((1S)-1-(4-chlorophenyl)-3-(4-(4-((2-(2,6-dioxopiperidin-3-yl)-1,3-dioxoisoindolin-4-yl)amino)butanoyl)piperazin-1-yl)-propyl)-1-(7H-pyrrolo[2,3-d]pyrimidin-4-yl)piperidine-4-carboxamide]",AKT (T-AKT) degradation,total AKT (T-AKT),moderate effectiveness
same,downstream signaling inhibition,[1]; [3],moderate effectiveness
"NC1(C(=O)N[C@@H](CCN2CCN(C(=O)CNc3cccc4c3C(=O)N(C3CCC(=O)NC3=O)C4=O)CC2)c2ccc(Cl)cc2)CCN(c2ncnc3[nH]ccc23)CC1 (stereo partly drawn) [Compound 24, 4-Amino-N-((1S)-1-(4-chlorophenyl)-3-(4-((2-(2,6-dioxopiperidin-3-yl)-1,3-dioxoisoindolin-4-yl)glycyl)piperazin-1-yl)propyl)-1-(7H-pyrrolo[2,3-d]pyrimidin-4-yl)piperidine-4-carboxamide]",AKT (T-AKT) degradation,total AKT (T-AKT),negligible AKT degradation
"NC1(C(=O)N[C@@H](CCN2CCN(C(=O)CCCCNc3cccc4c3C(=O)N(C3CCC(=O)NC3=O)C4=O)CC2)c2ccc(Cl)cc2)CCN(c2ncnc3[nH]ccc23)CC1 (stereo partly drawn) [Compound 27, 4-Amino-N-((1S)-1-(4-chlorophenyl)-3-(4-(5-((2-(2,6-dioxopiperidin-3-yl)-1,3-dioxoisoindolin-4-yl)amino)pentanoyl)piperazin-1-yl)propyl)-1-(7H-pyrrolo[2,3-d]pyrimidin-4-yl)piperidine-4-carboxamide]",AKT (T-AKT) degradation,total AKT (T-AKT),moderate effectiveness
same,downstream signaling inhibition,[1]; [3],moderate effectiveness
"NC1(C(=O)N[C@@H](CCN2CCN(C(=O)CCCCCCCNc3cccc4c3C(=O)N(C3CCC(=O)NC3=O)C4=O)CC2)c2ccc(Cl)cc2)CCN(c2ncnc3[nH]ccc23)CC1 (stereo partly drawn) [Compound 30, 4-Amino-N-((1S)-1-(4-chlorophenyl)-3-(4-(8-((2-(2,6-dioxopiperidin-3-yl)-1,3-dioxoisoindolin-4-yl)amino)octanoyl)piperazin-1-yl)-propyl)-1-(7H-pyrrolo[2,3-d]pyrimidin-4-yl)piperidine-4-carboxamide]",AKT (T-AKT) degradation,total AKT (T-AKT),negligible AKT degradation
"NC1(C(=O)N[C@@H](CCN2CCN(C(=O)CCNc3cccc4c3C(=O)N(C3CCC(=O)NC3=O)C4=O)CC2)c2ccc(Cl)cc2)CCN(c2ncnc3[nH]ccc23)CC1 (stereo partly drawn) [Compound 25, 4-Amino-N-((1S)-1-(4-chlorophenyl)-3-(4-(3-((2-(2,6-dioxopiperidin-3-yl)-1,3-dioxoisoindolin-4-yl)amino)propanoyl)piperazin-1-yl)propyl)-1-(7H-pyrrolo[2,3-d]pyrimidin-4-yl)piperidine-4-carboxamide]",AKT (T-AKT) degradation,total AKT (T-AKT),negligible AKT degradation
"Cc1ncsc1-c1ccc(CNC(=O)[C@@H]2C[C@@H](O)CN2C(=O)[C@@H](NC(=O)CCCCCCCCCC(=O)N2CCN(CC[C@H](NC(=O)C3(N)CCN(c4ncnc5[nH]ccc45)CC3)c3ccc(Cl)cc3)CC2)C(C)(C)C)cc1 [Compound 19, 4-Amino-N-((S)-1-(4-chlorophenyl)-3-(4-(11-(((S)-1-((2S,4R)-4-hydroxy-2-((4-(4-methylthiazol-5-yl)benzyl)carbamoyl)pyrrolidin-1-yl)-3,3-dimethyl-1-oxobutan-2-yl)amino)-11-oxoundecanoyl)-piperazin-1-yl)propyl)-1-(7H-pyrrolo[2,3-d]pyrimidin-4-yl)-piperidine-4-carboxamide]",AKT (T-AKT) degradation,total AKT (T-AKT),most profound AKT degradation
same,downstream signaling inhibition,[1]; [3],most profound AKT degradation and downstream signaling inhibition
"NC1(C(=O)N[C@@H](CCN2CCN(C(=O)CCCCCCNc3cccc4c3C(=O)N(C3CCC(=O)NC3=O)C4=O)CC2)c2ccc(Cl)cc2)CCN(c2ncnc3[nH]ccc23)CC1 (stereo partly drawn) [Compound 29, 4-Amino-N-((1S)-1-(4-chlorophenyl)-3-(4-(7-((2-(2,6-dioxopiperidin-3-yl)-1,3-dioxoisoindolin-4-yl)amino)heptanoyl)piperazin-1-yl)propyl)-1-(7H-pyrrolo[2,3-d]pyrimidin-4-yl)piperidine-4-carboxamide]",AKT (T-AKT) degradation,total AKT (T-AKT),negligible AKT degradation

# Reference: PMC8900464 (Journal of medicinal chemistry, 2022)
